Converted amounts (≈) assume the structure as drawn.
Columns and labels:
Format in all cases: functional
Candida albicans [1] = assay: Antifungal activity against Candida albicans SC5314 assessed as inhibition of fungal growth by CLSI M27-A3 guidelines based method
Candida tropicalis = assay: Antifungal activity against Candida tropicalis GIM 2.183 assessed as inhibition of fungal growth by CLSI M27-A3 guidelines based method
Cryptococcus neoformans = assay: Antifungal activity against Cryptococcus neoformans CGMCC 2.3161 assessed as inhibition of fungal growth by CLSI M27-A3 guidelines based method
Candida albicans [2] = assay: Antifungal activity against Candida albicans GIM 2.194 assessed as inhibition of fungal growth by CLSI M27-A3 guidelines based method
Candida parapsilosis = assay: Antifungal activity against Candida parapsilosis GIM 2.190 assessed as inhibition of fungal growth by CLSI M27-A3 guidelines based method; conditions: Lodderomyces parapsilosis
Nakaseomyces glabratus = assay: Antifungal activity against Candida glabrata assessed as inhibition of fungal growth by CLSI M27-A3 guidelines based method
Pichia kudriavzevii = assay: Antifungal activity against Candida krusei GIM 2.1 assessed as inhibition of fungal growth by CLSI M27-A3 guidelines based method

SMILES	MIC80 (Candida albicans [1]) [µg/mL]	MIC80 (Candida tropicalis) [µg/mL]	MIC80 (Cryptococcus neoformans) [µg/mL]	MIC80 (Candida albicans [2]) [µg/mL]	MIC80 (Candida parapsilosis) [µg/mL]	MIC80 (Nakaseomyces glabratus) [µg/mL]	MIC80 (Pichia kudriavzevii) [µg/mL]
CN(Cc1ccc(N2CCN(Cc3ccc(F)cc3)CC2)cc1)CC(O)(Cn1cncn1)c1ccc(F)cc1F (stereo unspecified)	0.1 (≈ 0.182 µM)	0.1 (≈ 0.182 µM)	0.8 (≈ 1.45 µM)	0.05 (≈ 0.0908 µM)	0.2 (≈ 0.363 µM)	0.8 (≈ 1.45 µM)	0.2 (≈ 0.363 µM)
CN(Cc1ccc(N2CCN(Cc3ccc(Br)cc3)CC2)cc1)CC(O)(Cn1cncn1)c1ccc(F)cc1F (stereo unspecified)	0.025 (≈ 0.0409 µM)	0.025 (≈ 0.0409 µM)	0.2 (≈ 0.327 µM)	0.025 (≈ 0.0409 µM)	0.05 (≈ 0.0818 µM)	0.4 (≈ 0.654 µM)	0.1 (≈ 0.164 µM)
CN(Cc1ccc(N2CCN(Cc3ccc(Cl)cc3)CC2)cc1)CC(O)(Cn1cncn1)c1ccc(F)cc1F (stereo unspecified)	0.05 (≈ 0.0882 µM)	0.05 (≈ 0.0882 µM)	0.8 (≈ 1.41 µM)	0.05 (≈ 0.0882 µM)	0.1 (≈ 0.176 µM)	0.8 (≈ 1.41 µM)	0.1 (≈ 0.176 µM)
CN(Cc1ccc(N2CCN(Cc3ccc(I)cc3)CC2)cc1)CC(O)(Cn1cncn1)c1ccc(F)cc1F (stereo unspecified)	0.025 (≈ 0.038 µM)	0.05 (≈ 0.0759 µM)	0.1 (≈ 0.152 µM)	0.013 (≈ 0.0197 µM)	0.1 (≈ 0.152 µM)	0.2 (≈ 0.304 µM)	0.1 (≈ 0.152 µM)
CN(Cc1ccc(N2CCN(Cc3cc(Br)ccc3Br)CC2)cc1)CC(O)(Cn1cncn1)c1ccc(F)cc1F (stereo unspecified)	0.013 (≈ 0.0188 µM)	0.006 (≈ 0.00869 µM)		0.025 (≈ 0.0362 µM)	0.006 (≈ 0.00869 µM)	0.1 (≈ 0.145 µM)	0.1 (≈ 0.145 µM)
CN(Cc1ccc(N2CCN(Cc3ccc(C(F)(F)F)cc3Br)CC2)cc1)CC(O)(Cn1cncn1)c1ccc(F)cc1F (stereo unspecified)	0.013 (≈ 0.0191 µM)	0.025 (≈ 0.0368 µM)	0.2 (≈ 0.294 µM)	0.025 (≈ 0.0368 µM)	0.013 (≈ 0.0191 µM)	0.2 (≈ 0.294 µM)	0.2 (≈ 0.294 µM)
CN(Cc1ccc(N2CCN(C(=O)C3CC3)CC2)cc1)CC(O)(Cn1cncn1)c1ccc(F)cc1F (stereo unspecified)	0.25 (≈ 0.49 µM)	1 (≈ 1.96 µM)	16 (≈ 31.3 µM)	1 (≈ 1.96 µM)	0.5 (≈ 0.979 µM)	32 (≈ 62.7 µM)	32 (≈ 62.7 µM)
CC(C)C(=O)N1CCN(c2ccc(CN(C)CC(O)(Cn3cncn3)c3ccc(F)cc3F)cc2)CC1 (stereo unspecified)	0.25 (≈ 0.488 µM)	0.5 (≈ 0.975 µM)	16 (≈ 31.2 µM)	1 (≈ 1.95 µM)	0.25 (≈ 0.488 µM)	16 (≈ 31.2 µM)	16 (≈ 31.2 µM)
CC(C)N1CCN(c2ccc(CN(C)CC(O)(Cn3cncn3)c3ccc(F)cc3F)cc2)CC1 (stereo unspecified)	4 (≈ 8.25 µM)	2 (≈ 4.13 µM)	> 32	8 (≈ 16.5 µM)	4 (≈ 8.25 µM)	> 32	> 32
CN(Cc1ccc(N2CCN(Cc3ccc(-c4ccccc4)cc3)CC2)cc1)CC(O)(Cn1cncn1)c1ccc(F)cc1F (stereo unspecified)	0.025 (≈ 0.0411 µM)	0.013 (≈ 0.0214 µM)	0.3 (≈ 0.493 µM)	0.025 (≈ 0.0411 µM)	0.025 (≈ 0.0411 µM)	0.4 (≈ 0.657 µM)	0.2 (≈ 0.329 µM)
CN(Cc1ccc(N2CCN(Cc3ccc([N+](=O)[O-])cc3)CC2)cc1)CC(O)(Cn1cncn1)c1ccc(F)cc1F (stereo unspecified)	0.025 (≈ 0.0433 µM)	0.025 (≈ 0.0433 µM)	0.1 (≈ 0.173 µM)	0.05 (≈ 0.0866 µM)	0.025 (≈ 0.0433 µM)	1.6 (≈ 2.77 µM)	0.4 (≈ 0.692 µM)
CN(Cc1ccc(N2CCN(Cc3cc(Cl)ccc3Br)CC2)cc1)CC(O)(Cn1cncn1)c1ccc(F)cc1F (stereo unspecified)	0.013 (≈ 0.0201 µM)	0.006 (≈ 0.00929 µM)	0.1 (≈ 0.155 µM)	0.013 (≈ 0.0201 µM)	0.006 (≈ 0.00929 µM)	0.2 (≈ 0.31 µM)	0.2 (≈ 0.31 µM)
CN(Cc1ccc(N2CCN(Cc3ccc(Br)cc3Br)CC2)cc1)CC(O)(Cn1cncn1)c1ccc(F)cc1F (stereo unspecified)	0.013 (≈ 0.0188 µM)	0.006 (≈ 0.00869 µM)		0.013 (≈ 0.0188 µM)	0.006 (≈ 0.00869 µM)	0.1 (≈ 0.145 µM)	0.1 (≈ 0.145 µM)
CN(Cc1ccc(N2CCN(Cc3ccccc3F)CC2)cc1)CC(O)(Cn1cncn1)c1ccc(F)cc1F (stereo unspecified)	0.05 (≈ 0.0908 µM)	0.05 (≈ 0.0908 µM)	0.2 (≈ 0.363 µM)	0.006 (≈ 0.0109 µM)	0.025 (≈ 0.0454 µM)	0.4 (≈ 0.726 µM)	0.1 (≈ 0.182 µM)
CN(Cc1ccc(N2CCN(Cc3cccc(F)c3)CC2)cc1)CC(O)(Cn1cncn1)c1ccc(F)cc1F (stereo unspecified)	0.05 (≈ 0.0908 µM)	0.025 (≈ 0.0454 µM)	0.4 (≈ 0.726 µM)	0.025 (≈ 0.0454 µM)	0.025 (≈ 0.0454 µM)	1.6 (≈ 2.91 µM)	0.4 (≈ 0.726 µM)
CN(Cc1ccc(N2CCN(Cc3c(Cl)cccc3Br)CC2)cc1)CC(O)(Cn1cncn1)c1ccc(F)cc1F (stereo unspecified)	0.013 (≈ 0.0201 µM)	0.006 (≈ 0.00929 µM)		0.025 (≈ 0.0387 µM)	0.006 (≈ 0.00929 µM)	0.2 (≈ 0.31 µM)	0.1 (≈ 0.155 µM)
CN(Cc1ccc(N2CCN(Cc3c(F)cccc3Br)CC2)cc1)CC(O)(Cn1cncn1)c1ccc(F)cc1F (stereo unspecified)	0.013 (≈ 0.0207 µM)	0.013 (≈ 0.0207 µM)	0.1 (≈ 0.159 µM)	0.1 (≈ 0.159 µM)	0.013 (≈ 0.0207 µM)	0.2 (≈ 0.318 µM)	0.1 (≈ 0.159 µM)

Reference: ChEMBL document CHEMBL6092162, “Identification of novel and potent triazoles targeting CYP51 for antifungal: Design, synthesis, and biological study” (Eur J Med Chem, 2024)
